In patent US5232930A, “2-heteroaryl-substituted benzodioxoic having 5-lipoxygenase inhibitory activity” (Imperial Chemical Industries PLC, priority 1991, dated 1993):

Experiments:
5-LO [1] = molecular target: T1, 5-LO (Homo sapiens, UniProt P09917); assay: test a) in vitro heparinised human blood, calcium ionophore A23187 challenge, LTB4 radioimmunoassay; format: cell-based
T1 construct: incubating a test compound with heparinised human blood, prior to challenge with the calcium ionophore A23187; from tissue; host or cells: heparinised human blood (endogenous enzyme of the blood cells)
T1 sequence (P09917 1-674): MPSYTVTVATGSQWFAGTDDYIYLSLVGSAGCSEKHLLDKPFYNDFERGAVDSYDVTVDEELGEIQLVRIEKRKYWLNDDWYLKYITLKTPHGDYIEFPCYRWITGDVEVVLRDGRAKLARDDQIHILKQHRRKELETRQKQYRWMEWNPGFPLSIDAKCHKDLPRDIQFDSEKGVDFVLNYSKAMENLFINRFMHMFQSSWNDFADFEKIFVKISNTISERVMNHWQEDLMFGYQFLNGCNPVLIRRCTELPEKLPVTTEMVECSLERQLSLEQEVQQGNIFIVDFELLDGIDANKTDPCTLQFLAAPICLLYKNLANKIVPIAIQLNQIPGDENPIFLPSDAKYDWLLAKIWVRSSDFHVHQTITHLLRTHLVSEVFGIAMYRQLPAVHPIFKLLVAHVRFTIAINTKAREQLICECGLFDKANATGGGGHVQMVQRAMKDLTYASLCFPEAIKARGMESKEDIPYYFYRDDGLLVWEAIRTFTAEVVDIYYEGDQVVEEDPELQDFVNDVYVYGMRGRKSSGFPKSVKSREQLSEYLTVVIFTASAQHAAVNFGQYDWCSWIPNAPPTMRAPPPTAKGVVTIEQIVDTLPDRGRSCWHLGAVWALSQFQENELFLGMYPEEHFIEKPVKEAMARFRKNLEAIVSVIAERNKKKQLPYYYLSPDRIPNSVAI
Method: (§1) As stated previously, the benzodioxole derivatives of the formula I are inhibitors of the enzyme 5-LO.
a) An in vitro assay system involving incubating a test compound with heparinised human blood, prior to challenge with the calcium ionophore A23187 and the indirectly measuring the inhibitory effects on 5-LO by assaying the amount of LTB4 using specific radioimmunoassays described by Carey and Forder (F. Carey and R.A. Forder, Prostaglandins Leukotrienes Med., 1986, 22, 57; Prostaglandins, 1984, 28, 666; Brit. J. Pharmacol. 1985, 84, 34P) which involve the use of a protein-LTB4 conjugate produced using the procedure of Young et alia (Prostaglandins, 1983, 26(4), 605-613). The effects of a test compound on the enzyme cyclooxygenase (which is involved in the alternative metabolic pathway for arachidonic acid and gives rise to prostaglandins, thromboxanes and related metabolites) may be measured at the same time using the specific radioimmunoassay for thromboxane B2 (T×B2) described by Carey and Forder (see above). This test provides an indication of the effects of a test compound against 5-LO and also cyclooxygenase in the presence of blood cells and proteins. It permits the selectivity of the inhibitory effect on 5-LO or cyclooxygenase to be assessed.

5-LO [2] = molecular target: T2, 5-LO (Rattus norvegicus, UniProt P12527); assay: test c) in vivo zymosan-induced LTB4 liberation in rat air pouch; settings: oral, male rats, 3 hours
T2 construct: liberation of LTB4 induced by zymosan within an air pouch generated within the subcutaneous tissue of the back of male rats; from tissue; host or cells: live male rats, zymosan-inflamed subcutaneous air pouch (endogenous enzyme)
T2 sequence (P12527 1-673): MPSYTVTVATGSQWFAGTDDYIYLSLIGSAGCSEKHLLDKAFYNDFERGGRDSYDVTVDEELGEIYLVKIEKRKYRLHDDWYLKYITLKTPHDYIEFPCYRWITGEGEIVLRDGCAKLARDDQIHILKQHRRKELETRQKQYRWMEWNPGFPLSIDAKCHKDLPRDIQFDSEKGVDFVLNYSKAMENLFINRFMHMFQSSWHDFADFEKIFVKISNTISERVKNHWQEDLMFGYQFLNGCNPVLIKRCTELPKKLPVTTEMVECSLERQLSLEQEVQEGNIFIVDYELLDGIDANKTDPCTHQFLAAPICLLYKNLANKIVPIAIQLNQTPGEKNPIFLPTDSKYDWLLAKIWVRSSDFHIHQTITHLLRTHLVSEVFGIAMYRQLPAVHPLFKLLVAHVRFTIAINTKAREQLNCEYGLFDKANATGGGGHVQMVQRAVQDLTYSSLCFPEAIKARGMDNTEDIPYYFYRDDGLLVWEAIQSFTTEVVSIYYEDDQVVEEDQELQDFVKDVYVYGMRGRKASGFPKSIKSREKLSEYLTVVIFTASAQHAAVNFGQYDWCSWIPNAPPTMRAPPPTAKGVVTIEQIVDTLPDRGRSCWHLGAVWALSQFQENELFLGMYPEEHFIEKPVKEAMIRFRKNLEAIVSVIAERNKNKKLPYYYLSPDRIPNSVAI
Method: as §1
c) An in vivo system involving measuring the effects of a test compound administered orally against the liberation of LTB4 induced by zymosan within an air pouch generated within the subcutaneous tissue of the back of male rats. The rats are anaesthetised and air pouches are formed by the injection of sterile air (20 ml). A further injection of air (10 ml) is similarly given after 3 days. At 6 days after the initial air injection the test compound is administered (usually orally as the suspension produced when a solution of the test compound in dimethylsulphoxide is added to hydroxypropylmethylcellulose), followed by the intrapouch injection of zymosan (1 ml of a 1% suspension in physiological saline). After 3 hours the rats are killed, the air pouches are lavaged with physiological saline, and the specific radioimmunoassay described above is used to assay LTB4 in the washings. This test provides an indication of inhibitory effects against 5-LO in an inflammatory milieu.

- IC50 (5-LO [1]): 380 nM
- ED50 (5-LO [2]): < 0.5 mg/kg
Compound: COC1(c2ccc3c(c2)OC(c2ccc4c(ccc(=O)n4C)c2)O3)CCOCC1 (centres unmarked) [5-(4-methoxytetrahydropyran-4-yl)-2-(1-methyl-2-oxo-1,2-dihydroquinolin-6-yl)benzo-1,3-dioxole]
